From patent publication US20260070903A1, “NOVEL PYRIDO[3,4-D]PYRIMIDIN-8-ONE DERIVATIVE HAVING PROTEIN KINASE INHIBITORY ACTIVITY, AND PHARMACEUTICAL COMPOSITION FOR PREVENTING, ALLEVIATING, OR TREATING CANCER, COMPRISING SAME” (KOREA INSTITUTE OF SCIENCE AND TECHNOLOGY, priority 2019, published 2026)

Assays:
[1] = tested on: OCI-AML3 (N-Ras Q61L); assay: Proliferation inhibitory activity, OCI-AML3; assay type: cell-based, human
Procedure: (§1) The inhibitory activities of the compounds of the present disclosure against the proliferation of the mt-NRAS (G12D) Ba/F3 and OCI-AML3 (mt-NRAS) cell lines were measured and the GI50 values thereof were calculated.

[2] = tested on: Ba/F3 (N-Ras G12D); assay: Proliferation inhibitory activity, Ba/F3 N-Ras G12D; assay type: cell-based
Procedure: as §1

[3] = molecular target: ACK1 (Homo sapiens, UniProt Q07912); assay: Inhibitory activity against ACK1 kinase (IC50); assay type: biochemical
Procedure: (§2) The inhibitory activities of the compounds of the present disclosure against two kinases, GCK and ACK1, were measured, and the IC50 values thereof were calculated.

[4] = molecular target: T1, GCK (Homo sapiens, UniProt Q12851); assay: Inhibitory activity against GCK kinase (IC50); assay type: biochemical
T1 sequence (Q12851 1-820): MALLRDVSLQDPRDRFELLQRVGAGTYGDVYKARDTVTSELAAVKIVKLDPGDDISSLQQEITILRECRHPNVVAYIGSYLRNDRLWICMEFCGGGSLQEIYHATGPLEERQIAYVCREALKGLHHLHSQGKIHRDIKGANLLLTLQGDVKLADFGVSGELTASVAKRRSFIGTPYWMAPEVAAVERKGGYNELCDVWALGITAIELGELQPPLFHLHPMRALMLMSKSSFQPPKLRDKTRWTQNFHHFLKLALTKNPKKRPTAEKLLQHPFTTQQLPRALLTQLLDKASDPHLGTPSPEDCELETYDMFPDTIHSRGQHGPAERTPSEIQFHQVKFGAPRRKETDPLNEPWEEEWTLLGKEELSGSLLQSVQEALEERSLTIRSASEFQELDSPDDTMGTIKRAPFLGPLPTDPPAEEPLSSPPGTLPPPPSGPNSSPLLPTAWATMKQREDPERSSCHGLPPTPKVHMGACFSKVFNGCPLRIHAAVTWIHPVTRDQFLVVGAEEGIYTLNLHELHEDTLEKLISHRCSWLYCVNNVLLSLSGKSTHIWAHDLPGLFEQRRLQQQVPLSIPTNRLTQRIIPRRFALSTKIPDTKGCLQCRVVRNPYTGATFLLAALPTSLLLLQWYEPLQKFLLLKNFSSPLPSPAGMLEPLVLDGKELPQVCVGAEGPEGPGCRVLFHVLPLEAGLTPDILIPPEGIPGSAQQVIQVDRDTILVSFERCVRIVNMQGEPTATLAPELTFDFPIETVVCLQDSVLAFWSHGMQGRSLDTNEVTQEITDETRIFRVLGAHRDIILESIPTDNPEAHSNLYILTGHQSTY
Procedure: as §2

ACK1, sequence (Q07912 whole entry): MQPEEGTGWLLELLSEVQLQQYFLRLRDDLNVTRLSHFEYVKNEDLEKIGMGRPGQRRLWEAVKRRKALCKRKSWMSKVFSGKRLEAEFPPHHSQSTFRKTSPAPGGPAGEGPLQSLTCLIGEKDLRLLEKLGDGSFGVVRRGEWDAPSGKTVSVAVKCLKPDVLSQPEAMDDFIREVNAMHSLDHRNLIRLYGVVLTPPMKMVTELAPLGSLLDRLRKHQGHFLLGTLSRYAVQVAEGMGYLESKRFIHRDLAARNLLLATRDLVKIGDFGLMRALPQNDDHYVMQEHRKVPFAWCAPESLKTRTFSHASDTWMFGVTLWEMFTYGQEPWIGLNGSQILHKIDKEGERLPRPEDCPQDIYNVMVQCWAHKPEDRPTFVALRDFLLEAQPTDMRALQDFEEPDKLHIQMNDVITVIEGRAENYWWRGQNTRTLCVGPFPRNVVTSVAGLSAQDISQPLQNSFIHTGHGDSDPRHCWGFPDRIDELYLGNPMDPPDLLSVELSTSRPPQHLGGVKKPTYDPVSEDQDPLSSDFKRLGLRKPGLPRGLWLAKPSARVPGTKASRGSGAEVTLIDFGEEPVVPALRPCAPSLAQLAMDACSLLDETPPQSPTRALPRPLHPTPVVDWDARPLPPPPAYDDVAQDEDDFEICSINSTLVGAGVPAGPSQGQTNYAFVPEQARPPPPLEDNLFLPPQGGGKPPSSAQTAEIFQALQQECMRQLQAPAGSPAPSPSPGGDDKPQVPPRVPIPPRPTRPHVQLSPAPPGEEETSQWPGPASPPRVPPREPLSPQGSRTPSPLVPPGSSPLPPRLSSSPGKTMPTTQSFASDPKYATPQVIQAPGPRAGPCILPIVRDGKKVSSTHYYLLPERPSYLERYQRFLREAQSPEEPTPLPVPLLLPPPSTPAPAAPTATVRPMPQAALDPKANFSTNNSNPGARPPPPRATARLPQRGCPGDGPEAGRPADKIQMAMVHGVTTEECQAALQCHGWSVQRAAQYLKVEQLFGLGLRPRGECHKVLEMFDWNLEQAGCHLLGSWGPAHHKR

Compound	GI50 ([1]; Homo sapiens, OCI-AML-3) [µM]	GI50 ([2]; Mus musculus, BaF3) [µM]	IC50 [3] [nM]	IC50 [4] [nM]	GI50 ([1]; OCI-AML3 (N-Ras Q61L)) [µM]	GI50 ([2]; Ba/F3 (N-Ras G12D)) [µM]
COc1ccc(CNc2ncc3cc(-c4cc(NC(=O)c5cccc(C(F)(F)F)c5)ccc4C)n(C)c(=O)c3n2)cc1 [Compound No. 10, N-(3-(2-((4-methoxybenzyl)amino)-7-methyl-8-oxo-7,8-dihydropyrido[3,4-d]pyrimidin-6-yl)-4-methylphenyl)-3-(trifluoromethyl)benzamide]	> 5	> 5				
COc1cc(N2CCOCC2)ccc1Nc1ncc2cc(-c3cc(NC(=O)c4cccc(C(F)(F)F)c4)ccc3C)n(C)c(=O)c2n1 [Compound No. 22, N-(3-(2-((2-methoxy-4-morpholinophenyl)amino)-7-methyl-8-oxo-7,8-dihydropyrido[3,4-d]pyrimidin-6-yl)-4-methylphenyl)-3-(trifluoromethyl)benzamide]	> 5	> 5				
Cc1ccc(NC(=O)c2cccc(C(F)(F)F)c2)cc1-c1cc2cnc(NCCSCc3ccco3)nc2c(=O)n1C [Compound No. 11, N-(3-(2-((2-((furan-2-ylmethyl)thio)ethyl)amino)-7-methyl-8-oxo-7,8-dihydiropyrido[3,4-d]pyrimidin-6-yl)-4-methylphenyl)-3-(trifluoromethyl)benzamide]					3 to 5	> 5
Cc1ccc(NC(=O)c2cccc(C(F)(F)F)c2)cc1-c1cc2cnc(NCCN3CCOCC3)nc2c(=O)n1C [Compound No. 6, N-(4-methyl-3-(7-methyl-2-((2-morpholinoethyl)amino)-8-oxo-7,8-dihydropyrido[3,4-d]pyrimidin-6-yl)phenyl)-3-(trifluoromethyl)benzamide]	0.5 to 3	0.5 to 3				
Cc1ccc(NC(=O)c2cccc(C(F)(F)F)c2)cc1-c1cc2cnc(Nc3ccc(N4CCC(O)CC4)cc3)nc2c(=O)n1C [Compound No. 19, N-(3-(2-((4-(4-hydroxypiperidin-1-yl)phenyl)amino)-7-methyl-8-oxo-7,8-dihydropyrido[3,4-d]pyrimidin-6-yl)-4-methylphenyl)-3-(trifluoromethyl)benzamide]	0.5 to 3	0.5 to 3				
Cc1ccc(NC(=O)c2cccc(C(F)(F)F)c2)cc1-c1cc2cnc(NC3CC3)nc2c(=O)n1C [Compound No. 1, N-(3-(2-(cyclopropylamino)-7-methyl-8-oxo-7,8-dihydropyrido[3,4-d]pyrimidin-6-yl)-4-methylphenyl)-3-(trifluoromethyl)benzamide]	0.5 to 3	0.5 to 3				
Cc1ccc(NC(=O)c2cccc(C(F)(F)F)c2)cc1-c1cc2cnc(N3CCOCC3)nc2c(=O)n1C [Compound No. 12, N-(4-methyl-3-(7-methyl-2-morpholino-8-oxo-7,8-dihydropyrido[3,4-d]pyrimidin-6-yl)phenyl)-3-(trifluoromethyl)benzamide]	0.5 to 3	> 5				

Further lines, with some results ahead:

GI50 ([1]; Homo sapiens, OCI-AML-3) [µM]	GI50 ([2]; Mus musculus, BaF3) [µM]	IC50 [3] [nM]	IC50 [4] [nM]	Compound	GI50 ([1]; OCI-AML3 (N-Ras Q61L)) [µM]	GI50 ([2]; Ba/F3 (N-Ras G12D)) [µM]
< 0.5	0.5 to 3			Cc1ccc(Nc2ncc3cc(-c4cc(NC(=O)c5cccc(C(F)(F)F)c5)ccc4C)[nH]c(=O)c3n2)cn1 [Compound No. 54, N-(4-methyl-3-(2-((6-methylpyridin-3-yl)amino)-8-oxo-7,8-dihydropyrido[3,4-d]pyrimidin-6-yl)phenyl)-3-(trifluoromethyl)benzamide]		
0.5 to 3	0.5 to 3			Cc1ccc(NC(=O)c2cccc(C(F)(F)F)c2)cc1-c1cc2cnc(NCCO)nc2c(=O)n1C [Compound No. 2, N-(3-(2-((2-hydroxyethyl)amino)-7-methyl-8-oxo-7,8-dihydropyrido[3,4-d]pyrimidin-6-yl)-4-methylphenyl)-3-(trifluoromethyl)benzamide]		
< 0.5	0.5 to 3			CCN1CCN(c2ccc(Nc3ncc4cc(-c5cc(NC(=O)c6cccc(C(F)(F)F)c6)ccc5C)n(C)c(=O)c4n3)cc2)CC1 [Compound No. 17, N-(3-(2-((4-(4-ethylpiperazin-1-yl)phenyl)amino)-7-methyl-8-oxo-7,8-dihydropyrido[3,4-d]pyrimidin-6-yl)-4-methylphenyl)-3-(trifluoromethyl)benzamide]		
0.5 to 3	0.5 to 3			Cc1ccc(NC(=O)c2cccc(C(F)(F)F)c2)cc1-c1cc2cnc(Nc3ccc(C(=O)N(C)C)cc3)nc2c(=O)n1C [Compound No. 15]		
< 0.5	< 0.5	< 100	100 to 1000	Cc1ccc(NC(=O)c2cccc(C(F)(F)F)c2)cc1-c1cc2cnc(NC3CC3)nc2c(=O)[nH]1 [Compound No. 53, N-(3-(2-(cyclopropylamino)-8-oxo-7,8-dihydropyrido[3,4-d]pyrimidin-6-yl)-4-methylphenyl)-3-(trifluoromethyl)benzamide]		
< 0.5	< 0.5	< 100	100 to 1000	Cc1ccc(Nc2ncc3cc(-c4cc(NC(=O)c5cccc(C(F)(F)F)c5)ccc4C)n(C)c(=O)c3n2)cn1 [Compound No. 13, N-(4-methyl-3-(7-methyl-2-((6-methylpyridin-3-yl)amino)-8-oxo-7,8-dihydropyrido[3,4-d]pyrimidin-6-yl)phenyl)-3-(trifluoromethyl)benzamide]		
